Key:
Format in all cases: cell-based
[1] = target: T1, MR (Homo sapiens, UniProt P08235); experiment: Functional assay of mineralocorticoid receptor antagonism (mammalian two hybrid luciferase reporter, 293T cells); conditions: antagonism of aldosterone (0.4 nM)-induced MR activity
T1 construct: expressed in transfected cells; host or cells: 293T cells (ATCC)
T1 sequence (P08235 672-984): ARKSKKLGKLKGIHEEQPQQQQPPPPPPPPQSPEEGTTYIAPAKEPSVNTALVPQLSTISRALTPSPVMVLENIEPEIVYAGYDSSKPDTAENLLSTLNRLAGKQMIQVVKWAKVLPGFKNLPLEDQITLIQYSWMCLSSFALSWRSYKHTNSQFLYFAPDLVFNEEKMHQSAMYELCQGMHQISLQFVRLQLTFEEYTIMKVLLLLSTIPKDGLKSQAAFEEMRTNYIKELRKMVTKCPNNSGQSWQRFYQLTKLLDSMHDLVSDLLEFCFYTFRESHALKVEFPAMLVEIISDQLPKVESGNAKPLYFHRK
Method: The MR antagonist activity of the compounds is determined in a mammalian two hybrid reporter system. The N-terminus of MR (MR-NT, sequence coding amino acid 1-597) is fused to the activation domain of the VP16 gene. The ligand binding domain of MR (MR-LBD, sequence encoding amino acid 672-984) is fused to the DNA binding domain of the yeast Gal4 gene. The MR gene is cloned from a human kidney cDNA library with PCR.
The assay is performed in 384 well plates. Briefly, 293T cells (ATCC) are transfected with expression vectors for Gal4-MR-LBD and VP16-MR NT, and a luciferase reporter vector containing Gal4 binding sequence (pG5-Luc). Cells are plated in 384 well plates immediately after transfection (approximately 3×10^4 cells/well in 50 μl medium). The medium is supplemented with 3% charcoal-dextran treated fetal bovine serum (Hyclone). Twenty four hours after transfection, compounds prepared in DMSO are transferred to the cells. The cells are then stimulated with 0.4 nM final concentration of aldosterone (Acros) and incubated at 37° C. for another 24 hours before the luciferase activity is assayed with 20 μl of Bright-Glo (Promega) using a luminometer (CLIPR). The expression of luciferase is used as an indicator of aldosterone-induced MR trans-activation. Each compound is tested in duplicate with 12-concentration titration. IC50 values (defined as the concentration of test compound required to antagonize 50% of aldosterone-induced MR activity) are determined from the dose-response curve.

[2] = target: T2, AR (Homo sapiens, UniProt P10275, Q868H); experiment: Functional assay of androgen receptor antagonism (MMTV luciferase reporter, MDA-kb2 cells); conditions: antagonism of dihydrotestosterone (0.3 nM)-induced AR activity
T2 construct: endogenous in cells; host or cells: MDA-kb2 cells (ATCC)
T2 sequence (P10275 1-920 Q868H): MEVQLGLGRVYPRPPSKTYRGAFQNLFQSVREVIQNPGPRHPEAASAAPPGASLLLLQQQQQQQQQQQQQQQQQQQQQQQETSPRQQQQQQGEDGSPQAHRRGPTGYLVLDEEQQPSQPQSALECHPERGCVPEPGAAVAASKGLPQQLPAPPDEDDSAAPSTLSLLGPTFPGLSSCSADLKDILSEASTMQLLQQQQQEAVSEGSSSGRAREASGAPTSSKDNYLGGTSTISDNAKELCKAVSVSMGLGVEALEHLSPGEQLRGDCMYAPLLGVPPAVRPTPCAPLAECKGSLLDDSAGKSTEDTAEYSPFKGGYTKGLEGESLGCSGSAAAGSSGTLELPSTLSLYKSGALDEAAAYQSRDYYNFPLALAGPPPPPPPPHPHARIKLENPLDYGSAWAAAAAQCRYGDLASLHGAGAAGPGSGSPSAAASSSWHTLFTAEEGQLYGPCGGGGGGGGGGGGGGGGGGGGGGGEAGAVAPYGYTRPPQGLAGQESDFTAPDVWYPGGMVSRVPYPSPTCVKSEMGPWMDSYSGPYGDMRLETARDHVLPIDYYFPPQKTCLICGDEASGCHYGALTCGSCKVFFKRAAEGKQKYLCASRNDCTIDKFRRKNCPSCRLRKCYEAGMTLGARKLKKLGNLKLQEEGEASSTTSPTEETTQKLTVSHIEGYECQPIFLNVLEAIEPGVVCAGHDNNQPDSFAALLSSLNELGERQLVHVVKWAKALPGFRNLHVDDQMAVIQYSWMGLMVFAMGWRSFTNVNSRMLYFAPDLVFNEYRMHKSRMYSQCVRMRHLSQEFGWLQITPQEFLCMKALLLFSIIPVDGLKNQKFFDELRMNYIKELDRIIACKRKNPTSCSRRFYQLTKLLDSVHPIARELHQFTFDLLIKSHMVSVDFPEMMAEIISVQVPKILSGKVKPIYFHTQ
Method: The AR antagonist activity of the compounds is determined with the MDA-Kb2 cell line (ATCC), which stably expresses the MMTV luciferase reporter. The MMTV promoter is a mouse mammary tumor virus promoter that contains androgen receptor response elements. […] Upon stimulation with AR ligands, such as dihydrotestosterone, the MMTV luciferase reporter can be activated.
The assay is performed in 384 well plates. Briefly, MDA-kb2 cells are plated in 384 well plates at a density of approximately 2.4×10^4 cells/well in 50 μl medium. The medium is supplemented with 5% charcoal-dextran treated fetal bovine serum (Hyclone). Twenty four hours later, compounds prepared in DMSO are transferred to the cells. The cells are then stimulated with 0.3 nM final concentration of dihydrotestosterone (Sigma) and incubated at 37° C. for another 24 hours before the luciferase activity is assayed with 20 μl of Bright-Glo (Promega) using a luminometer (CLIPR). The expression of luciferase is used as an indicator of dihydrotestosterone-induced AR trans-activation. Each compound is tested in duplicate with a 12-concentration titration. IC50 values (defined as the concentration of test compound required to antagonize 50% of dihydrotestosterone-induced AR activity) are determined from the dose-response curve.

[3] = target: T3, GR (Homo sapiens, UniProt P04150); experiment: Functional assay of glucocorticoid receptor antagonism (Gal4-GR-LBD luciferase reporter, COS-7 cells); conditions: antagonism of dexamethasone (10 nM)-induced GR activity
T3 construct: expressed in transfected cells; host or cells: COS-7 cells (ATCC)
T3 sequence (P04150 541-778 isoform P04150-3): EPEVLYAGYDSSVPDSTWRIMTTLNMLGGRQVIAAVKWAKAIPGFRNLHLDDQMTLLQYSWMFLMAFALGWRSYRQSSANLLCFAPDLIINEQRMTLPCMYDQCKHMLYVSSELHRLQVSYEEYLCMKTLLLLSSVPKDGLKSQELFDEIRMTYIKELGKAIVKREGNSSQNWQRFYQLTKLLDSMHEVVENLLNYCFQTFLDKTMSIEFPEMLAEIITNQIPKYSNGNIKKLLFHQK
Method: The GR antagonist activity of the compounds is determined in a mammalian two hybrid reporter system. The ligand binding domain of GR (GR-LBD, sequence encoding amino acid 541-778) is fused to the DNA binding domain of the yeast Gal4 gene. The GR gene is cloned from a human lung cDNA library with PCR.
The assay is performed in 384 well plates: COS-7 cells (ATCC) are transfected with expression vectors for Gal-4-GR-LBD and a luciferase reporter vector containing Gal4 binding sequence (pG5-Luc). Cells are plated in 384 well plates immediately after transfection (approximately 8000 cells/well in 50 μl medium). The medium is supplemented with 3% charcoal-dextran treated fetal bovine serum (Hyclone). Twenty four hours after transfection, compounds prepared in DMSO are transferred to the cells. The cells are then stimulated with 10 nM final concentration of dexamethasone (Sigma) and incubated at 37° C. for another 24 hours before the luciferase activity is assayed with 20 μl of Bright-Glo (Promega) using a luminometer (CLIPR). The expression of luciferase is used as an indicator of dexamethasone-induced GR trans-activation. Each compound is tested in duplicate with a 12-concentration titration. IC50 values (defined as the concentration of test compound required to antagonize 50% of dexamethasone-induced GR activity) are determined from the dose-response curve.

[4] = target: T4, PR (Homo sapiens, UniProt P06401); experiment: Functional assay of progesterone receptor antagonism (progesterone-induced alkaline phosphatase, T-47D cells); conditions: antagonism of progesterone (3 nM)-induced PR activity
T4 construct: endogenous in cells; host or cells: T-47D cells (ATCC)
T4 sequence (P06401 1-933): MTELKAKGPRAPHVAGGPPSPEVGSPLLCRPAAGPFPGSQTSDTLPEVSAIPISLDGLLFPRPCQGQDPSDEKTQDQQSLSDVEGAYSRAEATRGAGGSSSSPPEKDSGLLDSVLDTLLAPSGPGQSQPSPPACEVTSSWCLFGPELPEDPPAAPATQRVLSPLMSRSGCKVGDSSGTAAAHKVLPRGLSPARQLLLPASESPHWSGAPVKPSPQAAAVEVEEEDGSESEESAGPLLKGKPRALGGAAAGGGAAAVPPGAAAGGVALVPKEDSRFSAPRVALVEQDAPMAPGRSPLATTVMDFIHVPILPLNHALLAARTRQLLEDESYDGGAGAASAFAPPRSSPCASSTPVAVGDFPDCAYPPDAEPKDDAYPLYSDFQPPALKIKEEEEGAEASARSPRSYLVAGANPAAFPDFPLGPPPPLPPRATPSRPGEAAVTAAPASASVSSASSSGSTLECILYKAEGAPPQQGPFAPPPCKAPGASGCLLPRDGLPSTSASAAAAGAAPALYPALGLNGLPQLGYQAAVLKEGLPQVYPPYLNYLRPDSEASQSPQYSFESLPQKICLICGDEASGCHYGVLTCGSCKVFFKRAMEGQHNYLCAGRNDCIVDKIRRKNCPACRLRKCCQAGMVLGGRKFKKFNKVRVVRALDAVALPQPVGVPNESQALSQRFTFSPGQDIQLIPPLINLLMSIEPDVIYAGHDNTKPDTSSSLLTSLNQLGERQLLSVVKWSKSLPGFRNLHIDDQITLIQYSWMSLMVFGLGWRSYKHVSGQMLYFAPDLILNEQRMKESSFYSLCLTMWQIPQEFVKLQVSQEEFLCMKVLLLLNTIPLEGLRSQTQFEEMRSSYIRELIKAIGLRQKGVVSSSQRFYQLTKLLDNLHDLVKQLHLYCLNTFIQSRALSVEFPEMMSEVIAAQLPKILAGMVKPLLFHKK
Method: The PR antagonist activity of the compounds is determined by progesterone-induced alkaline phosphatase activity in the T-47D cell line (ATCC). In the T-47D breast cancer cells, progesterone specifically induces de novo synthesis of a membrane-associated alkaline phosphatase enzyme in a time and dose-dependent manner (Di Lorenzo et al., Cancer Research, 51: 4470-4475 (1991)). The alkaline phosphatase enzymatic activity can be measured with a chemiluminescent substrate, such as CSPD® (Applied Biosystems).
The assay is performed in 384 well plates. Briefly, T-47D cells are plated in 384 well plates at a density of approximately 2.5×10^4 cells/well in 50 μl medium supplemented with 10% fetal bovine serum. Twenty four hours later, the medium is aspirated. New medium that is free of phenol red and serum is added to the cells. Compounds prepared in DMSO are transferred to the cells. The cells are then stimulated with 3 nM final concentration of progesterone (Sigma) and incubated at 37° C. for another 24 hours before the alkaline phosphatase is assayed with 25 μl of CSPD® (Applied Biosystems) using a luminometer (CLIPR). The expression of alkaline phosphatase is used as an indicator of progesterone-induced PR trans-activation. Each compound is tested in duplicate with a 12-concentration titration. […]

| Structure (SMILES) | IC50 [1] [nM] | IC50 [2] [nM] | IC50 [3] [nM] | IC50 [4] [nM] |
| --- | --- | --- | --- | --- |
| COc1ccccc1NC(=O)C1=C(C)NC(SC)=C(C#N)C1c1ccccc1Br (stereo not shown) [Compound 14, 2-methylthio-3-cyano-4-(2-bromophenyl)-5-(2-methoxyphenyl)carbamoyl-6-methyl-1,4-dihydro-pyridine] | 8 | 2600 | – | – |
| COCC1=C(C(=O)OC(C)C)C(c2ccc(F)cc2Br)C(C#N)=C(C)N1 (stereo not shown) [Compound 96, 5-isopropyl-2-methyl-3-cyano-4-(2-bromo-4-fluorophenyl)-6-(methoxymethyl)-1,4-dihydro-pyridine-5-carboxylate] | 9 | 39800 | 3100 | 2300 |
| COC(=O)C1=C(C)NC(C)=C(C#N)C1c1ccc(F)cc1Cl (stereo not shown) [Example 207, 5-methyl-2,6-dimethyl-3-cyano-4-(2-chloro-4-fluorophenyl)-1,4-dihydro-pyridine-5-carboxylate] | 41 | 2860 | 6850 | 478 |
